Measured values from the NIST ThermoML archive (doi:10.1021/acs.jced.6b00121).
“And” between values parts separate entries of the source, which are not always exact repeats. Equal values may be shown once.

How the values were obtained:
[1] = 100 kPa, Liquid; for viscosity: Falling or rolling sphere viscometry; for mass density: Vibrating tube method
[2] = xn = mol fraction of the nth substance listed; settings: 100 kPa, Liquid, x2 = 0; for viscosity: Falling or rolling sphere viscometry; for mass density: Vibrating tube method

CCCCCCO [hexan-1-ol]
[1]
Settings	mass density [kg/m3]	viscosity [mPa·s]
283.15 K	825.94	7.487
288.15 K	822.42	6.307
293.15 K	818.88	5.348
298.15 K	815.32	4.555
303.15 K	811.74	3.903
308.15 K	808.13	3.361
313.15 K	804.5	2.912
318.15 K	800.83	2.538
323.15 K	797.12	2.228
328.15 K	793.37	1.97
333.15 K	789.57	1.744
338.15 K	785.72	1.553
343.15 K	781.83	1.39
348.15 K	777.86	1.255
353.15 K	773.86	1.125
358.15 K	769.78	1.018
363.15 K	765.64	0.925

CCCCCO [pentan-1-ol]
[1]
Settings	mass density [kg/m3]	viscosity [mPa·s]
283.15 K	821.9	5.431
288.15 K	818.3	4.655
293.15 K	814.68	4.011
298.15 K	811.03	3.474
303.15 K	807.37	3.023
308.15 K	803.67	2.642
313.15 K	799.94	2.32
318.15 K	796.17	2.045
323.15 K	792.36	1.81
328.15 K	788.5	1.608
333.15 K	784.59	1.434
338.15 K	780.62	1.283
343.15 K	776.58	1.152
348.15 K	772.49	1.038
353.15 K	768.33	0.939
358.15 K	764.08	0.852
363.15 K	759.77	0.776

CCCCO [butan-1-ol] + CCCCCCCCCCC
[2]
Settings	mass density [kg/m3]	viscosity [mPa·s]
283.15 K	817.07	4.046
288.15 K	813.32	3.514
293.15 K	809.55	3.066
298.15 K	805.76	2.59
303.15 K	801.94	2.28
308.15 K	798.09	2.015
313.15 K	794.2	1.786
318.15 K	790.27	1.589
323.15 K	786.3	1.427
328.15 K	782.27	1.278
333.15 K	778.18	1.147
338.15 K	774.03	1.032
343.15 K	769.8	0.934
348.15 K	765.49	0.842
353.15 K	761.12	0.762
358.15 K	756.64	0.693
363.15 K	752.08	0.633

CCCCCCCCCCC [undecane]
[1]
Settings	mass density	viscosity [mPa·s]
283.15 K	747.78 kg/m3	1.371
288.15 K	744.06 kg/m3	1.249
293.15 K	740.35 kg/m3	1.145
298.15 K	736.64 kg/m3	1.062
303.15 K	732.93 kg/m3	0.982
308.15 K	729.23 kg/m3	0.91
313.15 K	725.53 kg/m3	0.847
318.15 K	721.82 kg/m3 and 721.818 kg/m3	0.79
323.15 K	718.11 kg/m3	0.74
328.15 K	714.39 kg/m3	0.692
333.15 K	710.68 kg/m3	0.651
338.15 K	706.95 kg/m3	0.615
343.15 K	703.22 kg/m3	0.58
348.15 K	699.47 kg/m3	0.549
353.15 K	695.72 kg/m3	0.522
358.15 K	691.96 kg/m3	0.497
363.15 K	688.18 kg/m3	0.475

CCCCCO [pentan-1-ol] + CCCCCCCCCCC
[2]
Settings	mass density [kg/m3]	viscosity [mPa·s]
283.15 K	821.9	5.431
288.15 K	818.3	4.655
293.15 K	814.68	4.011
298.15 K	811.03	3.474
303.15 K	807.37	3.023
308.15 K	803.67	2.642
313.15 K	799.94	2.32
318.15 K	796.17	2.045
323.15 K	792.36	1.81
328.15 K	788.5	1.608
333.15 K	784.59	1.434
338.15 K	780.62	1.283
343.15 K	776.58	1.152
348.15 K	772.49	1.038
353.15 K	768.33	0.939
358.15 K	764.08	0.852
363.15 K	759.77	0.776

CCCCCCO [hexan-1-ol] + CCCCCCCCCCC
[2]
Settings	mass density [kg/m3]	viscosity [mPa·s]
283.15 K	825.94	7.487
288.15 K	822.42	6.307
293.15 K	818.88	5.348
298.15 K	815.32	4.555
303.15 K	811.74	3.903
308.15 K	808.13	3.361
313.15 K	804.5	2.912
318.15 K	800.83	2.538
323.15 K	797.12	2.228
328.15 K	793.37	1.97
333.15 K	789.57	1.744
338.15 K	785.72	1.553
343.15 K	781.83	1.39
348.15 K	777.86	1.255
353.15 K	773.86	1.125
358.15 K	769.78	1.018
363.15 K	765.64	0.925

CCCO [propan-1-ol]
[1]
Settings	mass density [kg/m3]	viscosity [mPa·s]
283.15 K	811.48	2.834
288.15 K	807.54	2.489
293.15 K	803.58	2.195
298.15 K	799.59	1.929
303.15 K	795.58	1.714
308.15 K	791.53	1.536
313.15 K	787.44	1.372
318.15 K	783.304	1.229
323.15 K	779.11	1.113
328.15 K	774.86	1.002
333.15 K	770.54	0.905
338.15 K	766.15	0.819
343.15 K	761.67	0.752
348.15 K	757.09	0.685
353.15 K	752.44	0.625
358.15 K	747.65	0.574
363.15 K	742.77	0.528

CCCCO [butan-1-ol]
[1]
Settings	mass density [kg/m3]	viscosity [mPa·s]
283.15 K	817.07	4.046
288.15 K	813.32	3.514
293.15 K	809.55	3.066
298.15 K	805.76	2.59
303.15 K	801.94	2.28
308.15 K	798.09	2.015
313.15 K	794.2	1.786
318.15 K	790.27	1.589
323.15 K	786.3	1.427
328.15 K	782.27	1.278
333.15 K	778.18	1.147
338.15 K	774.03	1.032
343.15 K	769.8	0.934
348.15 K	765.49	0.842
353.15 K	761.12	0.762
358.15 K	756.64	0.693
363.15 K	752.08	0.633

CCCO [propan-1-ol] + CCCCCCCCCCC
[2]
Settings	mass density [kg/m3]	viscosity [mPa·s]
283.15 K	811.48	2.834
288.15 K	807.54	2.489
293.15 K	803.58	2.195
298.15 K	799.59	1.929
303.15 K	795.58	1.714
308.15 K	791.53	1.536
313.15 K	787.44	1.372
318.15 K	783.304	1.229
323.15 K	779.11	1.113
328.15 K	774.86	1.002
333.15 K	770.54	0.905
338.15 K	766.15	0.819
343.15 K	761.67	0.752
348.15 K	757.09	0.685
353.15 K	752.44	0.625
358.15 K	747.65	0.574
363.15 K	742.77	0.528
